These results are taken from patent US11352340B2, “Pyridine and pyridimine compounds as PI3K-gamma inhibitors” (Incyte Corporation, priority 2016, dated 2022).

Where a name gives a salt, the structure may show the parent alone. Read-outs that look alike come from different tables or passages of the source. Bounds are passed on as bounds.

Test [1] concerns the target PI3Kγ (p110γ) Recombinant Human Protein (Homo sapiens (Human), UniProt P48736). Nature of the test: PI3K-γ Scintillation Proximity Assay. The class given is biochemical. To be noted: read-out: PI3K-gamma SPA IC50. The method, boiled down: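 Recombinant human p110γ (13 nM) with 20 μM PIP2 and 2 μM ATP plus 0.5 μCi [γ-33P]ATP in 20 mM MOPS pH 6.7, 10 mM MgCl2, 5 mM DTT, 0.03% CHAPS, 2% DMSO, 120 min at room temperature. Product captured on WGA SPA beads and counted; IC50 fitted from % of solvent control versus log concentration.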

Test [2] has as its system Phosphorylated Ribosomal Protein S6 (RPS6) in THP-1 cells. Nature of the test: THP-1 RPS6 ELISA Assay. The settings on record: MCP-1 stimulated, phospho-RPS6 ELISA, read-out: THP p-RPS6 ELISA IC50. The class given is cell-based, Human. The method, then:
Example A. THP-1 RPS6 ELISA Assay
To measure the Phosphorylated Ribosomal Protein S6 (RPS6) in cell lysates, THP-1 cells (Human Acute Monocytic Leukemia) are purchased from ATCC (Manassas, Va.) and maintained in RPMI with 10% FBS (Gibco/Life Technologies, Carlsbad, Calif.). For the assay, THP-1 cells are serum starved overnight in RPMI, then plated in RPMI (2×10^5 cells/well in 90 μL) into 96-well flat-bottom tissue culture treated plates (Corning, Corning, N.Y.), in the presence or absence of a concentration range of test compounds. Covered plates are incubated for 2 hours at 37° C., 5% CO2 then treated with or without 10 nM MCP-1 (MYBioSource, San Diego, Calif.) for 15 minutes at 37° C., 5% CO2. Plates are centrifuged at 1600 RPM and supernatants are removed. Cells are lysed in Lysis Buffer (Cell Signaling, Danvers, Mass.) with Protease Inhibitor (Calbiochem/EMD, Germany), PMSF (Sigma, St Louis Mo.), HALTS (Thermo Fisher, Rockford, Ill.) for 30 min on wet ice. Cell lysates are frozen at −80° C. before testing. The lysates are tested in the Human/Mouse/Rat Phospho-RPS6 ELISA (R&D Systems, Inc. Minn, Minn.). The plate is measured using a microplate reader (SpectraMax M5—Molecular Devices, LLC Sunnyvale, Calif.) set to 450 nm with a wavelength correction of 540. IC50 determination is performed by fitting the curve of inhibitor percent inhibition versus the log of the inhibitor concentration using the GraphPad Prism 5.0 software.

Test [3] concerns the target PI3Kδ (p110δ/p85α) Recombinant Human Protein (Homo sapiens (Human), UniProt O00329). The test can be described thus: PI3Kδ Scintillation Proximity Assay. Format: biochemical. To be noted: read-out: PI3K-delta SPA IC50. The method, boiled down: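 Recombinant human p110δ/p85α (3.4 nM) with 20 μM PIP2 and 2 μM ATP plus [γ-33P]ATP, in 20 mM MOPS pH 6.7, 10 mM MgCl2, 5 mM DTT, 0.03% CHAPS, 2% DMSO; 120 min at room temperature. Product captured on WGA SPA beads, scintillation counted; IC50 from percent-of-control curves.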

Sequence of PI3Kδ (p110δ/p85α) Recombinant Human Protein (O00329 whole entry): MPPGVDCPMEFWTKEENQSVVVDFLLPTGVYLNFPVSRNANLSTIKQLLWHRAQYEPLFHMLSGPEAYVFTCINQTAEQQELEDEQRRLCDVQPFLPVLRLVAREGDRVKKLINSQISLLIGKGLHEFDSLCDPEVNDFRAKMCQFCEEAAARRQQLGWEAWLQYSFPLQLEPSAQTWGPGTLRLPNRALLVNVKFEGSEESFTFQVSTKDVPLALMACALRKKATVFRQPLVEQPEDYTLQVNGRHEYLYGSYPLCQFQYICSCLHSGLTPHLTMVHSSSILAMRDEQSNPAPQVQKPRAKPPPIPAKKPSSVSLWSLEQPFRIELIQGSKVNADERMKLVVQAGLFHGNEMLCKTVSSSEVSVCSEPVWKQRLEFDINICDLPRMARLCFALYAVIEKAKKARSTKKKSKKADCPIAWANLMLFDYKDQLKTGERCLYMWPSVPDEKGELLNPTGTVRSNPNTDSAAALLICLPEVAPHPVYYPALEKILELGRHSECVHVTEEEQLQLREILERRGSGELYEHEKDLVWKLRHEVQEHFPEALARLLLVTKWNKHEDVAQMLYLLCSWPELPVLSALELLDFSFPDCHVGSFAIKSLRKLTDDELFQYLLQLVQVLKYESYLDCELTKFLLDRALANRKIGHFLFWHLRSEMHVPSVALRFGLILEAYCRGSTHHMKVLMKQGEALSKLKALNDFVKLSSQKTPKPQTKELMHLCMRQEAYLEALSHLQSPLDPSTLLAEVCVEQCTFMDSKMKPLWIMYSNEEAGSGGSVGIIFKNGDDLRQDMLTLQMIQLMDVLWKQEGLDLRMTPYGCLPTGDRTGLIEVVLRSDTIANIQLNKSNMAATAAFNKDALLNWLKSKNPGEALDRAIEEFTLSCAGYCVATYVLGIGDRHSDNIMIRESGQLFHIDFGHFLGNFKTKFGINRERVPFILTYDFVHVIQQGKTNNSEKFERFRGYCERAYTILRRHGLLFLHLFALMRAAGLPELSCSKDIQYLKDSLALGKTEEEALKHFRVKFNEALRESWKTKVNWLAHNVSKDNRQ
Sequence of PI3Kδ (p110δ/p85α) Recombinant Human Protein (P27986 whole entry partner): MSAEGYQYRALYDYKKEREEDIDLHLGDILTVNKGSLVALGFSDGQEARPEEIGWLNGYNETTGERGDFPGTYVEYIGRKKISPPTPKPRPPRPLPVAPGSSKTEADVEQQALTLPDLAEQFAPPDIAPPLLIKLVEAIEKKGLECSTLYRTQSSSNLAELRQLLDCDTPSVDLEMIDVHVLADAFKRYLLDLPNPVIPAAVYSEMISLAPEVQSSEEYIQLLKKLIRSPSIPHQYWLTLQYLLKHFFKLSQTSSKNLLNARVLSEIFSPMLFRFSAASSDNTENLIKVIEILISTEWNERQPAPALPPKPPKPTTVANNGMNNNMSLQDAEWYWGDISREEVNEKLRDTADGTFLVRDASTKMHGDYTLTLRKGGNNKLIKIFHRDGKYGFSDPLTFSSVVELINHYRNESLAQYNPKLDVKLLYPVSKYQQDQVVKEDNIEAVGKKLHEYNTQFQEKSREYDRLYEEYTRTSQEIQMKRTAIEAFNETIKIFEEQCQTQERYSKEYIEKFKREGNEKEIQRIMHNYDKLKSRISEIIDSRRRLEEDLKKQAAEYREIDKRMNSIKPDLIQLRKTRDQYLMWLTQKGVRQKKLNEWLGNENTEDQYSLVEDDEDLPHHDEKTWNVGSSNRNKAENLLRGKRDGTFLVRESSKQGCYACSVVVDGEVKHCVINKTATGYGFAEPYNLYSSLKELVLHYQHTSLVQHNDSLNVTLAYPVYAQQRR
Sequence of PI3Kγ (p110γ) Recombinant Human Protein (P48736 whole entry): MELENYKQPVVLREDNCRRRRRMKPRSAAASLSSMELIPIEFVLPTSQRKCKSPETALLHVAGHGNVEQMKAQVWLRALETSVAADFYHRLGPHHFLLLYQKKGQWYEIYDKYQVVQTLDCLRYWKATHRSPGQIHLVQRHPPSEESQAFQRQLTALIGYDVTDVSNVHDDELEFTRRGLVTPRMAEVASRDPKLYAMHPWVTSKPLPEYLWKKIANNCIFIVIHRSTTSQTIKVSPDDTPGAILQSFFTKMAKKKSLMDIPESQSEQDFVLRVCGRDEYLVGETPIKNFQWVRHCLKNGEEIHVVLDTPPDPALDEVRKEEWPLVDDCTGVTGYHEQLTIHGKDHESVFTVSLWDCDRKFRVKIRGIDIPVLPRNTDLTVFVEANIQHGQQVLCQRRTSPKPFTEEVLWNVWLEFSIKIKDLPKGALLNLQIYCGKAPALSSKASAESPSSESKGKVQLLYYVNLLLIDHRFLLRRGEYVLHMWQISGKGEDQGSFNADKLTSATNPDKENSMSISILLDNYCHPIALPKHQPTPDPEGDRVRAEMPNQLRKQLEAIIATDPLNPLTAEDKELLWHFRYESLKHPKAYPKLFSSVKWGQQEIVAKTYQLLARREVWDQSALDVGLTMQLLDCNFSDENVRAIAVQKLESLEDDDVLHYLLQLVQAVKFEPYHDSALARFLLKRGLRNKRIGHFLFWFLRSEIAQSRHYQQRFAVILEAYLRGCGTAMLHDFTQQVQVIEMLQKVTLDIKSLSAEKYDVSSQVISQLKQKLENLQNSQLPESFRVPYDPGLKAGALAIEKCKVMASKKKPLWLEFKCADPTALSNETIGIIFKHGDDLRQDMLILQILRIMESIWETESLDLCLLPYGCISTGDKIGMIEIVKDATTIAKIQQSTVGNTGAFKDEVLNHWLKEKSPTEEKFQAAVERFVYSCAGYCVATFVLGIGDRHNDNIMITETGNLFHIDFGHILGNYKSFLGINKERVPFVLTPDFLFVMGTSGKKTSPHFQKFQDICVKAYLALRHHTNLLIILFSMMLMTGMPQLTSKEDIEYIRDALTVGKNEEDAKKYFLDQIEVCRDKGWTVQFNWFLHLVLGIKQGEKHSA

Regarding `Cc1nc(-c2cc(-c3cncc(NCC4CCOC4)c3)ccn2)[nH]c1C` (racemic) [Example 145B, 2′-(4,5-Dimethyl-1H-imidazol-2-yl)-N-(tetrahydrofuran-3-ylmethyl)-3,4′-bipyridin-5-amine], the IC50 is no more than 0.05 µM in test [1], no more than 0.3 µM in test [2] (Homo sapiens) and no more than 0.05 µM in test [3].
Take `Cc1[nH]c(-c2cc(-c3cncc(S(C)(=O)=O)c3)ccn2)nc1C(=O)N1CC[C@@H](O)C1` [Example 245]: the IC50 in test [1] was no more than 0.05 µM; in test [2], greater than 5 µM; in test [3], no more than 0.05 µM.
Consider `Cc1[nH]c(-c2cc(-c3cncc(S(C)(=O)=O)c3)ccn2)nc1C(=O)NC1CCOCC1` [Example 254, 5-Methyl-2-[5-(methylsulfonyl)-3,4′-bipyridin-2′-yl]-N-(tetrahydro-2H-pyran-4-yl)-1H-imidazole-4-carboxamide trifluoroacetate salt], for which the IC50 in test [1] is no more than 0.05 µM; in test [2] (Homo sapiens), no more than 0.3 µM; in test [3], no more than 0.05 µM.
In the case of `Cc1[nH]c(-c2cc(-c3cncc(N4CCOCC4)c3)ccn2)nc1C(=O)N1CC(C(F)(F)F)C1` [Example 262, 2′-(5-Methyl-4-{[3-(trifluoromethyl)azetidin-1-yl]carbonyl}-1H-imidazol-2-yl)-5-morpholin-4-yl-3,4′-bipyridine], the IC50 in test [1] is no more than 0.05 µM; in test [2] (Homo sapiens), 0.3 to 1 µM; in test [3], no more than 0.05 µM.
In the case of `Cc1nc(-c2cc(-c3cncc(C(=O)N4CCN(C5CCN(C)CC5)CC4)c3)ccn2)[nH]c1C` [Example 158, (2′-(4,5-Dimethyl-1H-imidazol-2-yl)-3,4′-bipyridin-5-yl)(4-(1-methylpiperidin-4-yl)piperazin-1-yl)methanone], the results for the IC50 in test [1], in test [2] (Homo sapiens) and in test [3] were no more than 0.05 µM, 1 to 5 µM and no more than 0.1 µM, respectively.
As for `Cc1[nH]c(-c2cc(-c3cncc(N4CCOCC4)c3)ccn2)nc1C(=O)NCc1ccccc1` [Example 272, N-Benzyl-5-methyl-2-(5-morpholin-4-yl-3,4′-bipyridin-2′-yl)-1H-imidazole-4-carboxamide trifluoroacetate salt], the results for the IC50 in test [1], in test [2] (Homo sapiens) and in test [3] were no more than 0.05 µM, no more than 0.3 µM and no more than 0.05 µM, respectively.
With `CS(=O)(=O)c1cncc(-c2ccnc(-c3ncc(C4CCC4)[nH]3)c2)c1` [Example 113, 2′-(5-Cyclobutyl-1H-imidazol-2-yl)-5-(methylsulfonyl)-3,4′-bipyridine trifluoroacetate salt], the figures for the IC50 in test [1], in test [2] (Homo sapiens) and in test [3] were no more than 0.05 µM, no more than 0.3 µM and no more than 0.05 µM, respectively.
Consider `CS(=O)(=O)c1cncc(-c2ccnc(-c3nc(C4CCCCC4)c(N)[nH]3)c2)c1` [Example 120, 4-Cyclohexyl-2-[5-(methylsulfonyl)-3,4′-bipyridin-2′-yl]-1H-imidazol-5-amine Trifluoroacetate Salt], for which the IC50 is no more than 0.1 µM in test [1], greater than 5 µM in test [2] (Homo sapiens) and no more than 0.05 µM in test [3].
For the compound `O=C(Cn1cc(-c2ccnc(-c3ncc(-c4ccccc4)[nH]3)c2)cn1)N1CCCC1` [Example 50, 2-(4-(2-(5-Phenyl-1H-imidazol-2-yl)pyridin-4-yl)-1H-pyrazol-1-yl)-1-(pyrrolidin-1-yl)ethanone trifluoroacetate salt], the IC50 in test [1] and in test [3] was greater than 0.5 µM in each case.
As to `Cc1nc(-c2cc(-c3cncc(C(=O)NCCCN(C)C)c3)ccn2)[nH]c1C` [Example 149, 2′-(4,5-Dimethyl-1H-imidazol-2-yl)-N-(3-(dimethylamino)propyl)-3,4′-bipyridine-5-carboxamide], the IC50 in test [1] was no more than 0.1 µM; in test [3] it was greater than 0.5 µM.
For `Cc1[nH]c(-c2cc(-c3cncc(N4CCOCC4)c3)ccn2)nc1CN[C@@H]1CCOC1` [Example 287, (3R)-N-{[5-Methyl-2-(5-morpholin-4-yl-3,4′-bipyridin-2′-yl)-1H-imidazol-4-yl]methyl}tetrahydrofuran-3-amine] the same measures were greater than 0.5 µM and no more than 0.5 µM.
Regarding `COC(=O)N1CC=C(c2cncc(-c3ccnc(-c4nc(C)c(C)[nH]4)c3)c2)C1` [Example 239, Methyl 3-(2′-(4,5-dimethyl-1H-imidazol-2-y1)-3,4′-bipyridin-5-yl)-2,5-dihydro-1H-pyrrole-1-carboxylate], the IC50 in test [1] and in test [3] was no more than 0.5 µM in each case.
For `O=C(Cn1cc(-c2ccnc(-c3ncc(-c4ccccc4)[nH]3)c2)cn1)N1CCOCC1` [Example 51, 1-Morpholino-2-(4-(2-(5-phenyl-1H-imidazol-2-yl)pyridin-4-yl)-1H-pyrazol-1-yl)ethanone trifluoroacetate salt], the IC50 in test [1] and in test [3] was greater than 0.5 µM each time.
Regarding `Cc1[nH]c(-c2cc(-c3cncc(N4CCOCC4)c3)ccn2)nc1CN1CCOCC1` [Example 292, 2′-[5-Methyl-4-(morpholin-4-ylmethyl)-1H-imidazol-2-yl]-5-morpholin-4-yl-3,4′-bipyridine], the IC50 was no more than 0.5 µM in test [1] and no more than 0.1 µM in test [3].
In the same order, the values of `Cc1nc(-c2cc(-c3cncc(C(=O)N4CCCC(c5ccccc5)C4)c3)ccn2)[nH]c1C` (racemic) [Example 188, 2′-(4,5-Dimethyl-1H-imidazol-2-yl)-5-[(3-phenylpiperidin-1-yl)carbonyl]-3,4′-bipyridine trifluoroacetate salt] are no more than 0.5 µM and no more than 0.5 µM.
Turning to `Clc1cccc(Cn2cc(-c3ccnc(-c4ncc(-c5ccccc5)[nH]4)c3)cn2)c1` [Example 21, 4-(1-(3-Chlorobenzyl)-1H-pyrazol-4-yl)-2-(5-phenyl-1H-imidazol-2-yl)pyridine trifluoroacetate salt], the IC50 in test [1] was no more than 0.5 µM; in test [3] it was greater than 0.5 µM.
In the same order, the values of `Cc1nc(-c2cc(-c3cncc(C(=O)N(C)CCCO)c3)ccn2)[nH]c1C` [Example 209, 2′-(4,5-Dimethyl-1H-imidazol-2-yl)-N-(3-hydroxypropyl)-N-methyl-3,4′-bipyridine-5-carboxamide] are no more than 0.1 µM and no more than 0.1 µM.
In the same order, the values of `Cc1[nH]c(-c2cc(-c3cncc(N4CCOCC4)c3)ccn2)nc1C(=O)N(C)C(C)C` [Example 259, N-Isopropyl-N,5-dimethyl-2-(5-morpholin-4-yl-3,4′-bipyridin-2′-yl)-1H-imidazole-4-carboxamide] are no more than 0.5 µM and no more than 0.5 µM.
As to `O=C(O)c1ccccc1Cn1cc(-c2ccnc(-c3ncc(-c4ccccc4)[nH]3)c2)cn1` [Example 33, 2-((4-(2-(5-Phenyl-1H-imidazol-2-yl)pyridin-4-yl)-1H-pyrazol-1-yl)methyl)benzoic acid trifluoroacetate salt], the figures for the IC50 in test [1] and in test [3] were greater than 0.5 µM and no more than 0.5 µM, respectively.
For `Cc1nc(-c2cc(-c3cncc(C(=O)N4CCN(C(N)=O)CC4)c3)ccn2)[nH]c1C` [Example 150, 4-(2′-(4,5-Dimethyl-1H-imidazol-2-yl)-3,4′-bipyridine-5-carbonyl)piperazine-1-carboxamide] the same measures were no more than 0.5 µM and no more than 0.1 µM.
Take `CCOC(=O)CCn1cc(-c2ccnc(-c3ncc(-c4ccccc4)[nH]3)c2)cn1` [Example 55, Ethyl 3-(4-(2-(5-phenyl-1H-imidazol-2-yl)pyridin-4-yl)-1H-pyrazol-1-yl)propanoate trifluoroacetate salt]: the IC50 in test [1] and in test [3] was no more than 0.5 µM in each case.
